Results on 14 molecules are retold here after ChEMBL document CHEMBL1131038, “Derivatives of the triazoloquinazoline adenosine antagonist (CGS 15943) having high potency at the human A2B and A3 receptor subtypes” (J Med Chem, 1998).

Experiment [1] addresses T1, Adenosine receptor A2b (Homo sapiens) (UniProt P29275).
T1 sequence (whole entry): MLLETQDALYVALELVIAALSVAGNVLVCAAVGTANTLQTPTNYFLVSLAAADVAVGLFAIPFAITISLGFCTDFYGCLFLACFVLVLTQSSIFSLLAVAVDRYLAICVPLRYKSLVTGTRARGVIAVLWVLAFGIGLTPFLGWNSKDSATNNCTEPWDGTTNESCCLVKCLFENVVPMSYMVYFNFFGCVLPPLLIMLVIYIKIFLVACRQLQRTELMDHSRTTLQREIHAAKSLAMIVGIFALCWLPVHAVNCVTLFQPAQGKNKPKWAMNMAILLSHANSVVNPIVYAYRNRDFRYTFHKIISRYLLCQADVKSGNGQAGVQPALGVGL
Description: Inhibition at 50 uM on cAMP production induced by 50 uM 5`-(N-ethylcarboxamido)adenosine in CHO cell line transfected with human Adenosine A2B receptor cDNA. In kind it is cell-based.

Experiment [2] addresses Adenosine receptor A2a (Rattus norvegicus, UniProt P30543). Description: Binding affinity was determined in radioligand binding assay at rat striatal Adenosine A2A receptor vs [3H]-CGS- 21680.
Experiment [3] in a line: Ratio against rat A2A receptor and Human A3 receptor.
The nature of experiment [4]: Ratio against rat A1 receptor and Human A3 receptor.
Experiment [5] concerns the target T2, Adenosine receptor A1 (Rattus norvegicus, UniProt P25099).
T2 sequence (P25099 whole entry): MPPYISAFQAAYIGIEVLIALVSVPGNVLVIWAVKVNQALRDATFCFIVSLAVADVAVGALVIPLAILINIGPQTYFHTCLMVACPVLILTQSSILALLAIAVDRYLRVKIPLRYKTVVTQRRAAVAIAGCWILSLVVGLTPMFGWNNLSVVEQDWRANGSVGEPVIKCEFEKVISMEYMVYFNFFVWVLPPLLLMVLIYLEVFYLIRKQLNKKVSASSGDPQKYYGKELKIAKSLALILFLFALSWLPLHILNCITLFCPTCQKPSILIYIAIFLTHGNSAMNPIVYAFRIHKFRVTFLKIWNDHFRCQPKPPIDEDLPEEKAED
Description: Binding affinity was determined in radioligand binding assay at rat brain adenosine A1 receptor vs [3H]R-PIA

The target in experiment [6] is T3, Adenosine receptor A3 (Homo sapiens, UniProt P0DMS8).
T3 sequence (P0DMS8 whole entry): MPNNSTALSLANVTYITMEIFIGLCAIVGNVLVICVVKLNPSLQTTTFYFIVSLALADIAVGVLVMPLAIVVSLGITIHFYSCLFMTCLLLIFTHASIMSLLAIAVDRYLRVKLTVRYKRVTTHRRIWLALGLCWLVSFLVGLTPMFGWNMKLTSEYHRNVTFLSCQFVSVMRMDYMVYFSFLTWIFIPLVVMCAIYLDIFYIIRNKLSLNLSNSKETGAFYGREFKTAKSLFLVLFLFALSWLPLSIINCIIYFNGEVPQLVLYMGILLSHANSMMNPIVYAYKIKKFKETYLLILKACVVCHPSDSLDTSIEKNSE
The experiment can be described thus: biochemical.
Description: Binding affinity at cloned human adenosine A3 receptor expressed in HEK293 cells was determined using [125I]AB-MECA as radioligand

For experiment [7], the target named is T4, Adenosine receptor A2b (Homo sapiens, UniProt P29275).
T4 sequence (P29275 whole entry): T1 sequence (whole entry)
The experiment can be described thus: Inhibition of 50 uM 5`-(N-ethylcarboxamido)adenosine induced cAMP production in CHO cell line expressing human Adenosine A2B receptor. It is filed as cell-based. On the technique in general: cAMP levels reflect the balance of adenylyl cyclase and phosphodiesterase activity.

The target in experiment [8] is T4, Adenosine receptor A2b. The experiment can be described thus: pA2 value at human Adenosine A2B receptor from Schild plots with slopes approaching unity. As to conditions: read-out: pA2 (converted).
Experiment [9] concerns the target T4, Adenosine receptor A2b. Description: Inhibition of 50 uM 5`-(N-ethylcarboxamido)adenosine induced cAMP production in CHO cell line expressing human Adenosine A2B receptor at 50 uM. In kind it is functional, cell-based.

Chain of Adenosine receptor A2a (P30543 whole entry): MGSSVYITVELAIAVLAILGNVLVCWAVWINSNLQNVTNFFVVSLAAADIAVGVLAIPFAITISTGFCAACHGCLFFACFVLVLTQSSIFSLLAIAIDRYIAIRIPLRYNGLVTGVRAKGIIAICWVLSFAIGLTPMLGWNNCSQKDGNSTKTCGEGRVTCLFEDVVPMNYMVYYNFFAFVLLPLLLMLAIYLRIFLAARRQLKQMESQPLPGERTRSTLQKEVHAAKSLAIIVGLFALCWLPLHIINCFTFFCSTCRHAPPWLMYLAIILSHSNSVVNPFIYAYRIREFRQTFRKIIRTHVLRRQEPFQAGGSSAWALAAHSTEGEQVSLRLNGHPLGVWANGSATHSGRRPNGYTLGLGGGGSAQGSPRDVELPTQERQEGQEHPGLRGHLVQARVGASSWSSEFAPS

One may read the inhibition as the percentage by which the read-out fell short of the control. Broadly, the Ki is a measure of affinity in units of concentration, obtained from inhibition or displacement. A higher Ki goes with weaker binding. As to `NCCCCCC(=O)Nc1nc2ccc(Cl)cc2c2nc(-c3ccco3)nn12`, the inhibition in experiment [1] came out at 79%. Also, the inhibitory constant (Ki) worked out at 10.3 nM in [2], 99.6 nM in experiment [5] and 213 nM in experiment [6]. The Selectivity ratio is 0.048 in experiment [3] and 0.47 in [4].

For orientation: IC50 means the midpoint of a concentration-inhibition curve. Low readings indicate greater potency, high ones weaker potency. For the molecule `CC(C)(C)OC(=O)Nc1nc2ccc(Cl)cc2c2nc(-c3ccco3)nn12`, the inhibition in experiment [1] was found to be 92%. The molecule further yielded an IC50 in experiment [7] of 2410 nM.

In turn, `CC(C)(C)C(=O)Nc1nc2ccc(Cl)cc2c2nc(-c3ccco3)nn12` registered an inhibition in experiment [1] of 89%. This molecule had an IC50 in experiment [7] of 2400 nM.

As for `O=C(Cc1ccc(I)cc1)Nc1nc2ccc(Cl)cc2c2nc(-c3ccco3)nn12`, in experiment [1], the inhibition is 42%. In addition, the Ki came out at 9.93 nM in experiment [2], 13.8 nM in experiment [5] and 62.9 nM in experiment [6]. For the same molecule, the Selectivity ratio in experiment [3] came to 0.16; in [4] it was 0.22.

`NCCCCCCC(=O)Nc1nc2ccc(Cl)cc2c2nc(-c3ccco3)nn12` gave an inhibition in experiment [1] of 75%. Besides, the Ki was 55.9 nM in experiment [2], 114 nM in experiment [5] and 346 nM in [6]. The Selectivity ratio came to 0.16 in experiment [3] and 0.33 in experiment [4].

For `NCCCC(=O)Nc1nc2ccc(Cl)cc2c2nc(-c3ccco3)nn12`, the inhibition in experiment [1] stood at 100%. Also, the inhibitory constant (Ki) amounted to 1.38 nM in [2] and 8.75 nM in experiment [5]. Also, the Kb in experiment [8] was 10 nM. Further, the figures for the Selectivity ratio in experiment [3] and in experiment [4] were 0.017 and 0.11, respectively. In experiment [7], this molecule returned an IC50 of 270 nM.

Take `O=C(Cc1cccc(Cl)c1)Nc1nc2ccc(Cl)cc2c2nc(-c3ccco3)nn12`: in experiment [1], the inhibition was found to be 45%. The inhibition constant (Ki) in experiment [2] was 9.43 nM; in experiment [5], 43 nM; in experiment [6] it was 32.1 nM. Further, the Selectivity ratio in [3] is 0.29; in [4] it was 1.3.

`Nc1ccc(CC(=O)Nc2nc3ccc(Cl)cc3c3nc(-c4ccco4)nn23)cc1I`: the inhibition in [1] is 23%. Besides, the results for the inhibition constant Ki in experiment [2], in [5] and in experiment [6] were 10.4 nM, 217 nM and 49.3 nM, respectively. Besides, the Selectivity ratio in experiment [3] was 0.21; in experiment [4], 4.4.

In turn, `O=C(O)CCCC(=O)Nc1nc2ccc(Cl)cc2c2nc(-c3ccco3)nn12` came in with an IC50 in [9] of 1900 nM. Moreover, the inhibitory constant (Ki) is 1.15 nM in experiment [2], 45 nM in [5] and 81.3 nM in experiment [6]. Besides, the Selectivity ratio in experiment [3] was 0.014; in experiment [4] it was 0.55.

Molecule `Nc1ccc(CC(=O)Nc2nc3ccc(Cl)cc3c3nc(-c4ccco4)nn23)cc1` yielded an inhibition in [1] of 90%. In experiment [7], this molecule yielded an IC50 of 7400 nM. The Ki in experiment [6] was found to be 3.56 nM.

The molecule `NCCC(=O)Nc1nc2ccc(Cl)cc2c2nc(-c3ccco3)nn12` displayed an inhibition in experiment [1] of 83%. Also, the Ki in experiment [2] came out at 7.58 nM; in experiment [5], 89.8 nM; in experiment [6], 874 nM. Further, the results for the Selectivity ratio in experiment [3] and in [4] were 0.0088 and 0.1, respectively. Further, it took 13300 nM to reach half-maximal inhibition in [7] (IC50).

Take `NCCCCC(=O)Nc1nc2ccc(Cl)cc2c2nc(-c3ccco3)nn12`: the inhibition in [1] worked out at 100%. Also, the results for the Ki in [2], in experiment [5] and in experiment [6] were 1.13 nM, 6.99 nM and 57.9 nM, respectively. The Selectivity ratio in experiment [3] worked out at 0.02; in experiment [4] it was 0.12. This molecule also registered a 50% inhibitory concentration (IC50) in experiment [7] of 1770 nM.

In [1], `O=C(/C=C/c1ccccc1)Nc1nc2ccc(Cl)cc2c2nc(-c3ccco3)nn12` registered an inhibition of 38%. For the same molecule, the inhibitory constant (Ki) in experiment [2] came to 59.8 nM; in experiment [5] it was 282 nM; in [6], 72.1 nM. Moreover, the Selectivity ratio in [3] stood at 0.71; in experiment [4], 3.9.

In turn, `CC(=O)Nc1nc2ccc(Cl)cc2c2nc(-c3ccco3)nn12` returned an inhibition in experiment [1] of 92%. In experiment [7], the IC50 turned out to be 2650 nM.
